Reference: publication PMC5554220, “A Novel Aldosterone Antagonist Limits Renal Injury in 5/6 Nephrectomy” (Scientific Reports, 2017)

How the values were obtained:
[1] = target: T1, human androgen receptor (hAR) (Homo sapiens, UniProt P10275, DEL79-80/DUP470-473/R9G); experiment: Radioligand binding, [3H]mibolerone, hAR expressed in Sf9; details: hAR expressed in Sf9; [3H]mibolerone 0.3 nM; read-out: Mean Ki ± SEM hAR
T1 construct: made in house; host or cells: Sf9 insect cells (baculovirus)
T1 sequence (P10275 with tags, fused parts or gaps R9G/DEL79-80/DUP470-473): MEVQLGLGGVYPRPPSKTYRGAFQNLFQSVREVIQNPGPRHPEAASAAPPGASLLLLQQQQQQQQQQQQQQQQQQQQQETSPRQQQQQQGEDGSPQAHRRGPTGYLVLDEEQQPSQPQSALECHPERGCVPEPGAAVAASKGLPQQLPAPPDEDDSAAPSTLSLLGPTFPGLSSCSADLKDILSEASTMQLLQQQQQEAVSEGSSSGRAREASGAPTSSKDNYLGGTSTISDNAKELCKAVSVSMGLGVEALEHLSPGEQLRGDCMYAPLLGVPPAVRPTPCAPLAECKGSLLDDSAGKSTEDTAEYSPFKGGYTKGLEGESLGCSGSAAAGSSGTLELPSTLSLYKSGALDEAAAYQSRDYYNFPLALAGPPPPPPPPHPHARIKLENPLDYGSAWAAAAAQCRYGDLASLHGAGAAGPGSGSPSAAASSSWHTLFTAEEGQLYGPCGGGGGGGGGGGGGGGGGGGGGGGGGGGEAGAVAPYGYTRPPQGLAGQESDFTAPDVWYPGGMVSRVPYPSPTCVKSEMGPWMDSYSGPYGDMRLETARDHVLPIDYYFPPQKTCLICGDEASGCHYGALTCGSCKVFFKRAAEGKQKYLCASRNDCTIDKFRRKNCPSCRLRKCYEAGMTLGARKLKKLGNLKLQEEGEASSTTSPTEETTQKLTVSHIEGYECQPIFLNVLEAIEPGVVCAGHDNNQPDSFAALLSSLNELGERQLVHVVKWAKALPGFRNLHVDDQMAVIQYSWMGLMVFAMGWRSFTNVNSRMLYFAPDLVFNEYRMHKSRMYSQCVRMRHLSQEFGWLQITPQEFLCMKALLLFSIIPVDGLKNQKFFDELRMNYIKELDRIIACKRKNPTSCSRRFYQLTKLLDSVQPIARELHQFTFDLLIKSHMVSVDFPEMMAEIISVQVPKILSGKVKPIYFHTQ
Description: (§1) Full-length human mineralocorticoid receptor (hMR) to be used in radioligand binding was isolated from a human kidney cDNA library (Clontech, Palo Alto, CA). […] The hMR, hPR, and hAR cDNAs were subcloned in the eukaryotic expression vector pcDNA3. Methods for the expression of functionally active hMR, hAR and hPR utilizing the baculovirus expression system were described previously, [31].
(§2) Affinity of ligands to the soluble receptor was determined using vacuum filtration methods, preparing soluble receptors in 96-well Falcon polystyrene plates (BD Biosciences, Bedford, MA) in a total volume of 250 μl. […] Binding studies for ligands for hPR and hAR were determined using [1,2,6,7-3H(N)] […] Specific binding of 3H-progesterone for hPR and 3H-mibolerone for hAR was determined in the presence and absence of 1 μM mifepristone. Inhibition constants (Ki), were determined either from the Cheng-Prusoff equation[32], or directly using non-linear regression curve fitting to a three-parameter one-site competitive equation. […] Protein was measured using colorimetric detection and quantification of bicinchoninic acid (BCA Protein Assay, Pierce, Rockford, IL). […] Concentration response curves were analyzed statistically using a four-parameter logistic equation (Hill equation for sigmoid curves). […]

[2] = tested on: human androgen receptor (hAR); experiment: as above; details: selectivity
Description: as §1, §2

[3] = tested on: Nx rats; experiment: Preliminary experiments to determine the doses of Eple and Ly; assay type: in vivo
Description: Preliminary experiments were performed to exclude the possibility that any differences between Eple and Ly, both in monotherapy and as add-ons to L, were simply due to the use of inadequately low doses of either compound. In the first set of experiments, Nx rats received Eple at the recommended dose of 85 mg/kg, and at 150 mg/kg, higher than in most studies reported so far. […] Other Nx rats received Ly at either 12 mg/kg (the recommended dose) or 20 mg/kg. […] Based on these preliminary results, we set the doses of Eple and Ly at 150 mg/kg and 20 mg/kg, respectively.

[4] = Permeability (data not shown); assay type: in vitro ADME
[5] = Pharmacokinetics (data not shown)

**Q.** With `O=c1[nH]c2ccc(/C=C3\c4ccc(F)cc4COc4cc(F)ccc43)cc2[nH]1` [Ly] as the compound, how does the Ki [1] read?
**A.** 323 ± 101 nM

**Q.** And the “Ratio of Ki's hAR: hMR” value [2]?
**A.** 202

**Q.** What about the “Maximal nontoxic dose, defined by stunting of body growth” value [3] of the same compound?
**A.** 20 mg/kg

**Q.** And the “Dose-response effect on the parameters studied” value ([3]; Ly 12 mg/kg vs 20 mg/kg)?
**A.** A dose-response effect was observed for most parameters

**Q.** What about the Body growth ([3]; Ly 30 mg/kg) of the same compound?
**A.** severe growth stunting

**Q.** And the Permeability [4]?
**A.** good permeability

**Q.** And the Pharmacokinetics properties [5]?
**A.** good pharmacokinetics properties
